Columns and labels:
Type in all cases: cell-based
[1] = test system: HLA-G on the plasma membrane of the human ovarian cancer cell line SKOV3; assay: HLA-G expression level of tumor cells by flow cytometry; conditions: 20 μM, 48 hours, compared to untreated control, p<0.001
[2] = test system: human ovarian cancer cell line SKOV3; assay: tumor cell death (cytotoxicity), Annexin V-FITC/PI flow cytometry; conditions: treated alone; carboplatin 20 μM or 1×10^5 parental cells
Description: (§1) The cells are subsequently incubated for 24 hours. Each type of the tumor cells is divided into six groups. In a control, the tumor cells are untreated. In a group 1, the tumor cells are treated with the chemotherapy drug. In a group 2, the tumor cells are treated with the parental primary NK cell. In a group 3, the tumor cells are treated with the parental primary NK cell and the chemotherapy drug. In the groups 2 and 3, the number of the parental primary NK cell treated is 1×10^5 cells. In a group 4, the tumor cells are treated with the Example 1. In a group 5, the tumor cells are treated with the Example 1 and the chemotherapy drug. […] The treated cells are stained with Annexin V-FITC and propidium iodide (PI), and the apoptosis and the death of the tumor cells are detected by the flow cytometry. The sum of the percentage of cells stained with Annexin V-FITC and/or PI (that is the percentage of cells in the first quadrant, the second quadrant, and the fourth quadrant of the bivariate flow cytometry scatter plot) are calculated to obtain the cytotoxicity. The results of the cytotoxicity are counted after the three independent trials in each group.
(§2) The cells are subsequently incubated for 24 hours. […] The treated cells are stained with Annexin V-FITC and propidium iodide (PI), and the apoptosis and the death of the tumor cells are detected by the flow cytometry. […]

[3] = test system: HLA-G on the plasma membrane of the human breast cancer cell line MDA-MB-231; assay: HLA-G expression level of tumor cells by flow cytometry; conditions: 200 nM, 48 hours, compared to untreated control, p<0.001
Description: First, the human breast cancer cell line MDA-MB-231, the human malignant brain tumor cell line DBTRG, the human pancreatic cancer cell line AsPC1 and the human ovarian cancer cell line SKOV3 are seeded in a 6-well plate at a density of 2×10^5 cells/well. The cells are subsequently incubated for 24 hours. Each type of the tumor cells is divided into two groups. In a control, the tumor cells are untreated. In an experiment group, the tumor cells are treated with the chemotherapy drug for 48 hours. […] Then, the HLA-G expression level of the tumor cells are detected by flow cytometry.

[4] = test system: human breast cancer cell line MDA-MB-231; assay: tumor cell death (cytotoxicity), Annexin V-FITC/PI flow cytometry; conditions: treated alone; doxorubicin 200 nM or 1×10^5 parental cells
Description: (§3) The cells are subsequently incubated for 24 hours. […] In a control, the tumor cells are untreated.
as §3

[5] = test system: human pancreatic cancer cell line AsPC1; assay: as above; conditions: treated alone; gemcitabine 20 μM or 1×10^5 parental cells
Description: as §1, §2

What does the source list for N.N.O=C([O-])C1(C(=O)[O-])CCC1.[Pt+2] [carboplatin]?
expression of HLA-G on the plasma membrane of SKOV3 [1]: increase the expression of HLA-G; death rate of SKOV3 compared to the control (in words) [2]: increased, but there is no statistically significant differences compared to the control

COc1cccc2c1C(=O)c1c(O)c3c(c(O)c1C2=O)C[C@@](O)(C(=O)CO)C[C@@H]3O[C@H]1C[C@H](N)[C@H](O)[C@H](C)O1 [doxorubicin] was tested. Which “expression of HLA-G on the plasma membrane of MDA-MB-231” value [3] did it give?
Its value is “increase the expression of HLA-G”.

And the “death rate of MDA-MB-231 compared to the control (in words)” value [4]?
The value was “increased, but there is no statistically significant difference compared to the control”.

Nc1ccn([C@@H]2O[C@H](CO)[C@@H](O)C2(F)F)c(=O)n1 [gemcitabine] was tested. Which “death rate of AsPC1 compared to the control (in words)” value [5] did it give?
Its value is “increased, but there is no statistically significant difference compared to the control”.

— patent US11479611B2 (China Medical University Hospital, priority 2019, dated 2022)
